From ChEMBL document CHEMBL5244232, “Progress in 11β-HSD1 inhibitors for the treatment of metabolic diseases: A comprehensive guide to their chemical structure diversity in drug development” (Eur J Med Chem, 2020)
“And” between values parts separate entries of the source, which are not always exact repeats. Identical values can stand only once.

What was measured:
[1] = biological target: T1, 11-beta-hydroxysteroid dehydrogenase 1 (Mus musculus, UniProt P50172); experiment: Inhibition of mouse 11beta-HSD1 incubated for 24 hrs by HTRF assay
T1 sequence (P50172 whole entry): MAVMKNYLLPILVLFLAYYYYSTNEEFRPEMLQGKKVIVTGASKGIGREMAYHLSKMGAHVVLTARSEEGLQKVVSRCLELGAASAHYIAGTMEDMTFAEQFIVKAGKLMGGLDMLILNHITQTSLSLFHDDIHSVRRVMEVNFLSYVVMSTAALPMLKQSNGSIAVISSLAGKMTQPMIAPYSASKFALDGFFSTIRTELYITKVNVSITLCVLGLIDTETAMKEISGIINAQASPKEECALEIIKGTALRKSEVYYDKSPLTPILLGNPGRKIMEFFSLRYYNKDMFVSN

[2] = biological target: T2, 11-beta-hydroxysteroid dehydrogenase 1 (Homo sapiens, UniProt P28845); experiment: Inhibition of human 11beta-HSD1
T2 sequence (P28845 whole entry): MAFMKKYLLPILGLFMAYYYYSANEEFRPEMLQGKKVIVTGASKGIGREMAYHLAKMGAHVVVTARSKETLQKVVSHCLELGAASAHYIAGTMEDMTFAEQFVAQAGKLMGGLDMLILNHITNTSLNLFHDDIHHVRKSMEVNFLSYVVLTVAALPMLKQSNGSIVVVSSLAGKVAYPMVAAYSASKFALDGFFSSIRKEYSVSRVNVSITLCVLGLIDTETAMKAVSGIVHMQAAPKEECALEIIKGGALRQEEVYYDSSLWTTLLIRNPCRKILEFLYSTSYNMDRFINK

[3] = biological target: T2, 11-beta-hydroxysteroid dehydrogenase 1; experiment: Inhibition of human 11beta-HSD1 using steroid as substrate incubated for 20 to 30 mins by microplate fluorimeter analysis
[4] = biological target: T1, 11-beta-hydroxysteroid dehydrogenase 1; experiment: Inhibition of mouse 11beta-HSD1
[5] = biological target: T1, 11-beta-hydroxysteroid dehydrogenase 1; experiment: Inhibition of mouse 11beta-HSD1 in liver microsome incubated for 24 hrs by LC-MS analysis; type: microsomes
[6] = biological target: T2, 11-beta-hydroxysteroid dehydrogenase 1; experiment: Inhibition of human 11beta-HSD1 in liver microsome incubated for 24 hrs by LC-MS analysis; type: microsomes
[7] = biological target: Hydroxysteroid 11-beta dehydrogenase 1 (Macaca mulatta, UniProt Q56D22); experiment: Inhibition of monkey 11beta-HSD1 in liver microsome incubated for 24 hrs by LC-MS analysis; type: microsomes
Sequence of Hydroxysteroid 11-beta dehydrogenase 1 (Q56D22 whole entry): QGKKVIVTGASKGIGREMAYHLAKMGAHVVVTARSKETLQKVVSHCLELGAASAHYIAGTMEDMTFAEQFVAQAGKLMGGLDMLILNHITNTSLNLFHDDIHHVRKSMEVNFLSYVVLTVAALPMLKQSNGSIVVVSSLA

[8] = biological target: T1, 11-beta-hydroxysteroid dehydrogenase 1; experiment: Inhibition of mouse 11beta-HSD1 expressed in CHO-K1 cells incubated for 24 hrs by HTRF assay; type: cell-based
[9] = biological target: T3, 11-beta-hydroxysteroid dehydrogenase 1 (Rattus norvegicus, UniProt P16232); experiment: Inhibition of rat 11beta-HSD1
T3 sequence (P16232 whole entry): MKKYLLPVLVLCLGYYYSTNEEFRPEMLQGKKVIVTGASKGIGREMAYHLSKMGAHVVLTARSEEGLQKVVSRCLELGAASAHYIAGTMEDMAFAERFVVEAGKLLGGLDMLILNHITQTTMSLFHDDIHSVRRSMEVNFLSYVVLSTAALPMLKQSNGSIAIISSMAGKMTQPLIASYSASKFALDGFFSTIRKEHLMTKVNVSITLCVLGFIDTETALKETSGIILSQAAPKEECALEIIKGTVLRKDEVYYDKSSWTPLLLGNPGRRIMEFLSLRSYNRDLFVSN

[10] = biological target: T4, 11-beta-hydroxysteroid dehydrogenase type 2 (Homo sapiens, UniProt P80365); experiment: Inhibition of human 11beta-HSD2 incubated for 2 hrs by HPLC analysis
T4 sequence (P80365 whole entry): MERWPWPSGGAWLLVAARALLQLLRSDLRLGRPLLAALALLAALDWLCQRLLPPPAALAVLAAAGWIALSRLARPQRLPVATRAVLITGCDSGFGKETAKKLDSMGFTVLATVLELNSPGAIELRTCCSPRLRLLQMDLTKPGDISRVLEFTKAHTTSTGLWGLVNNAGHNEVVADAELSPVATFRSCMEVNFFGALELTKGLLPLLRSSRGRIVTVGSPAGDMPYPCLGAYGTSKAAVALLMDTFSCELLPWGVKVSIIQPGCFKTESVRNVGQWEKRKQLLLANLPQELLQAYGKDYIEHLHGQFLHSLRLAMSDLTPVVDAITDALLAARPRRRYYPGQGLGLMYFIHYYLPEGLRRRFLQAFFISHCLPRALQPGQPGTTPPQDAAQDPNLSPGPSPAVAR

[11] = biological target: T1, 11-beta-hydroxysteroid dehydrogenase 1; experiment: Inhibition of mouse 11beta-HSD1 expressed in CHO-K1 cells incubated for 3 hrs by HTRF assay; type: cell-based
[12] = biological target: T1, 11-beta-hydroxysteroid dehydrogenase 1; experiment: Inhibition of mouse 11beta-HSD1 expressed in 3T3-L1 cells incubated for 24 hrs by HTRF assay; type: cell-based
[13] = biological target: T3, 11-beta-hydroxysteroid dehydrogenase 1; experiment: Inhibition of rat 11beta-HSD1 expressed in Leydig cells; type: cell-based
[14] = Inhibition of rat 11beta-HSD2 expressed in Leydig cells; type: cell-based
[15] = biological target: 11-beta-hydroxysteroid dehydrogenase 1 (Rattus norvegicus) (UniProt P16232); experiment: Inhibition of rat 11beta-HSD1 in adipose tissue microsome
[16] = biological target: T3, 11-beta-hydroxysteroid dehydrogenase 1; experiment: Inhibition of rat 11beta-HSD1 in kidney microsomes incubated for 20 mins by HPLC analysis; set-up: species or system Microsome
[17] = biological target: T2, 11-beta-hydroxysteroid dehydrogenase 1; experiment: Inhibition of human 11beta-HSD1 incubated for 30 mins by HPLC-MS/MS analysis

O=C(CN1C(C(=O)c2ccccc2)=C(O)c2ccccc2S1(=O)=O)c1ccccc1
IC50 [1]: 210 nM

O=S(=O)(c1ccccc1)N1CCN(c2ncccc2C(F)(F)F)CC1
IC50 [2]: 61 nM

Cc1nc(NS(=O)(=O)c2ccc(Cl)cc2Cl)sc1CC(Cl)(Cl)Cl
IC50 [3]: 55 nM

O=C(Cc1csc(NS(=O)(=O)c2c(Cl)cc(Cl)cc2Cl)n1)N1CCOCC1
IC50 [3]: 335 nM

C[C@@H](c1ccc(-c2ccn(C)c(=O)c2)cc1)N1CC[C@](CC(C)(C)O)(c2ccccc2)OC1=O
IC50 [4]: 4.3 nM

O=S(=O)(Nc1nc(-c2sccc2Cl)cs1)c1cc(F)c(Br)cc1F
IC50 [3]: 63 nM

CN(CC1(C(=O)NC23CC4CC(C2)CC(C(N)=O)(C4)C3)CC1)S(=O)(=O)c1ccccc1F
IC50 [5]: 2.8 nM | IC50 [6]: 0.02 nM | IC50 [7]: 2.43 nM

NC(=O)C12CC3CC(CC(NC(=O)CN4CCCN(c5c(Cl)cc(Cl)cc5Cl)S4(=O)=O)(C3)C1)C2
IC50 [8]: 0.4 nM

C[C@@H]1CN(c2ccc(F)cc2C(F)(F)F)CCN1S(=O)(=O)c1cccc([C@@](C)(O)C(F)(F)F)c1 [HSD-016]
IC50 [9]: 8 nM | IC50 [4]: 1 nM and 8 nM | IC50 [2]: 11 nM

O=C(O[C@@H]1Cc2c(O)cc(O)cc2O[C@@H]1c1cc(O)c(O)c(O)c1)c1cc(O)c(O)c(O)c1 [EPIGALOCATECHIN GALLATE]
IC50 [10]: 20900 nM

O=C(NC12CC3CC(CC(C3)C1)C2)C1NCCS1 (configuration not stated)
IC50 [11]: 2130 nM

NC(=O)C12CC3CC(CC(NC(=O)C4SCCN4S(=O)(=O)c4ccccc4F)(C3)C1)C2 (configuration not stated)
IC50 [11]: 5.2 nM | IC50 [12]: 3 nM

O=C1/C(=C\c2ccccc2C(F)(F)F)CCC/C1=C\c1ccccc1C(F)(F)F
IC50 [13]: 100 nM | IC50 [14]: > 100000 nM

Oc1ccc(/C=C/c2cc(O)cc(O)c2)cc1 [RESVERATROL]
IC50 [15]: 1000 nM | IC50 [16]: 35200 nM

CC1=C2[C@H](C)[C@@H](C)O[C@]23O[C@H](C)[C@@H](C)O[C@@]3(O)CC1=O
IC50 [17]: 9070 nM
